Measurements taken from ChEMBL document CHEMBL1158059, “Oculatol, oculatolide, and A-nor sterols from the sponge Haliclona oculata” (J Nat Prod, 2006).
Values after ≈ are worked out from the molar mass of the structure shown.

Legend:
A549 = test: Cytotoxicity against human A549 cells; format: functional, cell-based
Acetylcholinesterase = Acetylcholinesterase (Homo sapiens, UniProt P22303); test: Inhibition of AChE
[1] = target: T1, Tyrosine-protein phosphatase non-receptor type 1 (Homo sapiens, UniProt P18031); test: Inhibition of PTP1B
T1 sequence (P18031 whole entry): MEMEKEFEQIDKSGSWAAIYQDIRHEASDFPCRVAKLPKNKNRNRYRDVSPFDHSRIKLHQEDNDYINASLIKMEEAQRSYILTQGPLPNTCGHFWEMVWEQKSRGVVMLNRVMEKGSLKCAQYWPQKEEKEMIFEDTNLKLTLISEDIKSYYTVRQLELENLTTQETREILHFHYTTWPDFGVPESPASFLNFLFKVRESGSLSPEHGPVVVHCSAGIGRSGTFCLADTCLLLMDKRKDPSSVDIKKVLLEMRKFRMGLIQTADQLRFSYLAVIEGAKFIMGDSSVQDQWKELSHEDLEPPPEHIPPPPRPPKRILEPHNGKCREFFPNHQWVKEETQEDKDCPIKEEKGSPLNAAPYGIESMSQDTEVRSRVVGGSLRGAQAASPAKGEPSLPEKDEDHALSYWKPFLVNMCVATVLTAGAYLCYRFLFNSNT

HeLa = test: Cytotoxicity against human HeLa cells; format: functional, cell-based
Bel-7402 = test: Cytotoxicity against human Bel-7402 cells; format: functional, cell-based
HL-60 = test: Cytotoxicity against human HL-60 cells; format: functional, cell-based
[2] = target: T2, Prostaglandin G/H synthase 2 (Homo sapiens, UniProt P35354); test: Inhibition of COX2
T2 sequence (P35354 whole entry): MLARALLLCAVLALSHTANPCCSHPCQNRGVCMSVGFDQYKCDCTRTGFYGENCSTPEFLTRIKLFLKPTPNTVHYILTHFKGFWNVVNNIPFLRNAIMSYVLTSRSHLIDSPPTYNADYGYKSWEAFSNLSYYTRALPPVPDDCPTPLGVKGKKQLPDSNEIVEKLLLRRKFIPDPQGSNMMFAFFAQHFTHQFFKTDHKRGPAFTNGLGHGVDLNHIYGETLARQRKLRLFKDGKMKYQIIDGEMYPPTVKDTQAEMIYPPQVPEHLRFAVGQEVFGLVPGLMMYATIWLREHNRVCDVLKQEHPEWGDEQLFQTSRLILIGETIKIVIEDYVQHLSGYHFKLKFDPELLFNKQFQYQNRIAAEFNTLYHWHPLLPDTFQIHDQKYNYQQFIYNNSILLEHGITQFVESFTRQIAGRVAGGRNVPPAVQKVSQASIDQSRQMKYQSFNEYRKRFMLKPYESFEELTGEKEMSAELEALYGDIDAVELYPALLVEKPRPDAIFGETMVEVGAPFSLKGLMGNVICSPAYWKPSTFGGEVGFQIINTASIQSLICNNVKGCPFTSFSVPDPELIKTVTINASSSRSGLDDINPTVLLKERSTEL

Acetylcholinesterase, sequence (P22303 whole entry): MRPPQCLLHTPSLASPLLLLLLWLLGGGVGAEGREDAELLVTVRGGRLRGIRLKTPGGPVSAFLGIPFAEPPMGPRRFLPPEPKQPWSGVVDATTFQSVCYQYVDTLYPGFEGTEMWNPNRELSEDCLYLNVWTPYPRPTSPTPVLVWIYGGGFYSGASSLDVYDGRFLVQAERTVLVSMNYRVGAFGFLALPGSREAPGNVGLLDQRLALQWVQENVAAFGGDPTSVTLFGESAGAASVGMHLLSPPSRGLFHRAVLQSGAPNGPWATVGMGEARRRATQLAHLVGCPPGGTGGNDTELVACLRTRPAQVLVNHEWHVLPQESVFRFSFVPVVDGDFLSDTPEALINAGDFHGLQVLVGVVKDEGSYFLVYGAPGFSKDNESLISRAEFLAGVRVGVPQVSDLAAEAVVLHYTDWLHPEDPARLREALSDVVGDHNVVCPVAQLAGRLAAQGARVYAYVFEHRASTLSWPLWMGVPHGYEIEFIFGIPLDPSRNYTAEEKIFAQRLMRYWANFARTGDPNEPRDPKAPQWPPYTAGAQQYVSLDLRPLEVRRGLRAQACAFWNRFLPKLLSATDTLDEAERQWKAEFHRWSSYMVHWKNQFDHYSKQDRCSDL

SMILES: C=C(CC[C@@H](C)[C@H]1CC[C@H]2[C@@H]3CC=C4C(=O)[C@](O)(C(=O)OCC)C[C@]4(C)[C@H]3CC[C@]12C)C(C)C
- IC50 (A549): 0.47 µg/mL (≈ 0.999 µM)
- IC50 (Acetylcholinesterase): > 21.2 µM
- IC50 [1]: > 21.2 µM
- IC50 (HeLa): > 10 µg/mL
- IC50 (Bel-7402): 0.73 µg/mL (≈ 1.55 µM)
- IC50 (HL-60): 0.32 µg/mL (≈ 0.68 µM)
- IC50 [2]: > 21.2 µM
